Assay results: US20060004197A1, “Sulfonamide-based compounds as protein tyrosine kinase inhibitors” (priority 2004, published 2006)

Legend:
Type in all cases: biochemical
Conditions in all cases: NI = no inhibition at 100 μg/mL
Recombinant human Src = target: T1, Recombinant human Src (Homo sapiens, UniProt P12931); experiment: Src tyrosine kinase activity, poly E4Y / 32P-ATP phosphorylation assay
T1 construct: made in house; host or cells: baculovirus-insect cell system

Recombinant Csk = Recombinant Csk (Homo sapiens, UniProt P41240); experiment: Csk tyrosine kinase activity, poly E4Y / 32P-ATP phosphorylation assay
FGF receptor (FGFr) = experiment: FGFr tyrosine kinase activity, poly E4Y / 32P-ATP phosphorylation assay

T1 sequence (P12931 whole entry): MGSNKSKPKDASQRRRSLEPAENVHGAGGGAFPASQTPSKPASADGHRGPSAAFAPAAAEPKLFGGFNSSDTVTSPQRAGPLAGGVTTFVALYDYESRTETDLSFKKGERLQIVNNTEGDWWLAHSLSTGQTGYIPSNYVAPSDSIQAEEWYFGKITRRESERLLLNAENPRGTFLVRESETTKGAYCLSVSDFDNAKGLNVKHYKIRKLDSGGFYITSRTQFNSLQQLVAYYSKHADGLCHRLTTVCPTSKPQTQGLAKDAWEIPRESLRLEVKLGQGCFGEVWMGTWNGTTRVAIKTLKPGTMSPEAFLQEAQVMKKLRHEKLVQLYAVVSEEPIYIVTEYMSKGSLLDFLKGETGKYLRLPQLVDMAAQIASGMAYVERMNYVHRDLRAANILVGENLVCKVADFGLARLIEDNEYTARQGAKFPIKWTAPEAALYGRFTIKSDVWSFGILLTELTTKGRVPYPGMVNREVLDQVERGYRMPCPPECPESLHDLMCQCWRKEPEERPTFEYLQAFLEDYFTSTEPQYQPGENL

Row | Compound | IC50 (Recombinant human Src; Table 2, Formula I compounds) [µM] | IC50 (Recombinant Csk; Table 2, Formula I compounds) [µM] | IC50 (FGF receptor (FGFr); Table 2, Formula I compounds) [µM] | IC50 (Recombinant human Src; Table 3, Formula II compounds) [µM] | IC50 (Recombinant Csk; Table 3, Formula II compounds) [µM] | IC50 (FGF receptor (FGFr); Table 3, Formula II compounds) [µM] | IC50 (μM) FGFr (FGF receptor (FGFr); Table 3, Formula II compounds)
1 | Cc1ccc(S(=O)(=O)Nc2cc(Sc3ccccc3)c([N+](=O)[O-])cc2NS(=O)(=O)c2ccc(C)cc2)cc1 [Compound 4o, N-[5-nitro-4-phenylsulfanyl-2-(4-toluenesulfonylamino)-phenyl]-4-toluenesulfonamide] | 1.3 | 5.7 | 1.8 |  |  |  | 
2 | Cc1ccc(S(=O)(=O)Nc2cc(SCc3ccco3)c([N+](=O)[O-])cc2NS(=O)(=O)c2ccc(C)cc2)cc1 [Compound 4p, N-[4-(furan-2-ylmethylsulfanyl)-5-nitro-2-(4-toluenesulfonylamino)-phenyl]-4-toluenesulfonamide] | 1.6 | 11.3 | 7.3 |  |  |  | 
3 | Cc1ccc(S(=O)(=O)Nc2cc(SCc3ccc(Cl)cc3)c([N+](=O)[O-])cc2NS(=O)(=O)c2ccc(C)cc2)cc1 [Compound 4q, N-[4-(4-chloro-benzylsulfanyl)-5-nitro-2-(4-toluenesulfonylamino)-phenyl]-4-toluenesulfonamide] | 1 | 4.1 | 2.7 |  |  |  | 
4 | COc1ccc(CSc2cc(NS(=O)(=O)c3ccc(C)cc3)c(NS(=O)(=O)c3ccc(C)cc3)cc2[N+](=O)[O-])cc1 [Compound 4s, N-[4-(4-methoxy-benzylsulfanyl)-5-nitro-2-(4-toluenesulfonylamino)-phenyl]-4-toluenesulfonamide] | 1.3 | 5.7 | 4.3 |  |  |  | 
5 | Cc1ccc(S(=O)(=O)Nc2cc(-c3ccccc3)c([N+](=O)[O-])cc2NS(=O)(=O)c2ccc(C)cc2)cc1 [Compound 8, N-[5-nitro-4-phenyl-2-(4-toluenesulfonylamino)-phenyl]-4-toluenesulfonamide] | 1.7 | 10.4 | 4.9 |  |  |  | 
6 | CCc1ccc(S(=O)(=O)Nc2ccc(Oc3ccc(OC)cc3)cc2NS(=O)(=O)c2ccc(CC)cc2)cc1 [Compound 12a, 4-ethyl-N-[2-(4-ethyl-benzenesulfonylamino)-4-(4-methoxy-phenoxy)-phenyl]-benzenesulfonamide] |  |  |  | 23 | > 176 | 44 | 
7 | Cc1ccc(S(=O)(=O)Nc2ccc(OCCCO)cc2NS(=O)(=O)c2ccc(C)cc2)cc1 [Compound 12bb, N-[4-(3-hydroxy-propoxy)-2-(4-toluenesulfonylamino)-phenyl]-4-toluenesulfonamide] |  |  |  | > 204 | > 204 |  | NI (NI = no inhibition at 100 μg/mL)
8 | COc1ccc(Oc2ccc(NS(=O)(=O)c3ccc(Cl)cc3)c(NS(=O)(=O)c3ccc(Cl)cc3)c2)cc1 [Compound 12c, 4-chloro-N-[2-(4-chloro-benzenesulfonylamino)-4-(4-methoxy-phenoxy)-phenyl]-benzenesulfonamide] |  |  |  | 8.6 | 95 | 19 | 
9 | COc1ccc(Oc2ccc(NS(=O)(=O)c3ccc(F)cc3)c(NS(=O)(=O)c3ccc(F)cc3)c2)cc1 [Compound 12d, 4-fluoro-N-[2-(4-fluoro-benzenesulfonylamino)-4-(4-methoxy-phenoxy)-phenyl]-benzenesulfonamide] |  |  |  | 24 | 73 | 35 | 
10 | COc1ccc(Oc2ccc(NS(=O)(=O)c3ccc(Oc4ccccc4)cc3)c(NS(=O)(=O)c3ccc(Oc4ccccc4)cc3)c2)cc1 [Compound 12e, N-[4-(4-methoxy-phenoxy)-2-(4-phenoxy-benzenesulfonylamino)-phenyl]-4-phenoxy-benzenesulfonamide] |  |  |  | 19 | > 144 | 46 | 
11 | COc1ccc(Oc2ccc(NS(=O)(=O)c3cccc([N+](=O)[O-])c3)c(NS(=O)(=O)c3cccc([N+](=O)[O-])c3)c2)cc1 [Compound 12f, N-[4-(4-methoxy-phenoxy)-2-(3-nitro-benzenesulfonylamino)-phenyl]-3-nitro-benzenesulfonamide] |  |  |  | 20 | > 167 | 35 | 
12 | COc1ccc(Sc2ccc(NS(=O)(=O)c3ccc(C)cc3)c(NS(=O)(=O)c3ccc(C)cc3)c2)cc1 [Compound 12gg, N-[5-(4-methoxy-phenylsulfanyl)-2-(4-toluenesulfonylamino)-phenyl]-4-toluenesulfonamide] |  |  |  | 16 | > 180 | 17 | 
13 | COc1ccc(Oc2ccc(NS(=O)(=O)c3ccc(OC)cc3)c(NS(=O)(=O)c3ccc(OC)cc3)c2)cc1 [Compound 12k, N-[2-(4-methoxy-benzenesulfonylamino)-4-(4-methoxy-phenoxy)-phenyl]-4-methoxy-benzenesulfonamide] |  |  |  | 21 | 88 | 44 | 
14 | CCCCS(=O)(=O)Nc1ccc(Oc2ccc(OC)cc2)cc1NS(=O)(=O)CCCC [Compound 12l, butane-1-sulfonic acid [2-(butane-1-sulfonylamino)-4-(4-methoxy-phenoxy)-phenyl]-amide] |  |  |  | 40 | > 212 | 81 | 
15 | COc1ccc(Oc2ccc(NS(=O)(=O)c3ccc(OC)c(OC)c3)c(NS(=O)(=O)c3ccc(OC)c(OC)c3)c2)cc1 [Compound 12m, N-[2-(3,4-dimethoxy-benzenesulfonylamino)-4-(4-methoxy-phenoxy)-phenyl]-3,4-dimethoxy-benzenesulfonamide] |  |  |  | 54 | > 159 |  | NI (NI = no inhibition at 100 μg/mL)
16 | COc1ccc(Oc2ccc(NS(=O)(=O)c3ccc(C(C)(C)C)cc3)c(NS(=O)(=O)c3ccc(C(C)(C)C)cc3)c2)cc1 [Compound 12o, N-[2-(4-t-butyl-benzenesulfonylamino)-4-(4-methoxy-phenoxy)-phenyl]-4-t-butyl-benzenesulfonamide] |  |  |  | 7.2 | > 161 | 22 | 
17 | COc1ccc(Oc2ccc(NS(=O)(=O)c3ccc(C)cc3)c(NS(=O)(=O)c3ccc(C)cc3)c2)cc1 [Compound 12p, N-[5-(4-methoxy-phenoxy)-2-(4-toluenesulfonylamino)-phenyl]-4-toluenesulfonamide] |  |  |  | 28 | > 186 | 26 | 

Results, then the compound that gave them:

Row | IC50 (Recombinant human Src; Table 2, Formula I compounds) [µM] | IC50 (Recombinant Csk; Table 2, Formula I compounds) [µM] | IC50 (FGF receptor (FGFr); Table 2, Formula I compounds) [µM] | IC50 (Recombinant human Src; Table 3, Formula II compounds) [µM] | IC50 (Recombinant Csk; Table 3, Formula II compounds) [µM] | IC50 (FGF receptor (FGFr); Table 3, Formula II compounds) [µM] | IC50 (μM) FGFr (FGF receptor (FGFr); Table 3, Formula II compounds) | Compound
18 | 0.65 | 4.2 | 1.9 |  |  |  |  | Cc1ccc(S(=O)(=O)Nc2cc(SCc3ccccc3Cl)c([N+](=O)[O-])cc2NS(=O)(=O)c2ccc(C)cc2)cc1 [Compound 4r, N-[4-(2-chloro-benzylsulfanyl)-5-nitro-2-(4-toluenesulfonylamino)-phenyl]-4-toluenesulfonamide]
19 | 590 | 333 | 188 |  |  |  |  | CS(=O)(=O)Nc1cc(Sc2ccc(Cl)cc2)c([N+](=O)[O-])cc1NS(C)(=O)=O [Compound 4u, N-[5-(4-chloro-phenylsulfanyl)-2-methanesulfonylamino-4-nitro-phenyl]-methanesulfonamide]
20 |  |  |  | 6.7 | 77 | 10.6 |  | Cc1ccc(S(=O)(=O)Nc2ccc(Oc3ccc(CC(=O)O)cc3)cc2NS(=O)(=O)c2ccc(C)cc2)cc1 [Compound 12aa, {4-[3,4-bis(4-toluenesulfonylamino)-phenoxy]-phenyl}-acetic acid]
21 |  |  |  | 18.5 | > 168 | 45 |  | COc1ccc(Oc2ccc(NS(=O)(=O)c3ccc(C(C)C)cc3)c(NS(=O)(=O)c3ccc(C(C)C)cc3)c2)cc1 [Compound 12b, 4-isopropyl-N-[2-(4-isopropyl-benzenesulfonylamino)-4-(4-methoxy-phenoxy)-phenyl]-benzenesulfonamide]
22 |  |  |  | 4 | 8.6 | 3.6 |  | Cc1ccc(S(=O)(=O)Nc2ccc(Sc3ccc(Cl)cc3)cc2NS(=O)(=O)c2ccc(C)cc2)cc1 [Compound 12ff, N-[4-(4-chloro-phenylsulfanyl)-2-(4-toluenesulfonylamino)-phenyl]-4-toluenesulfonamide]
23 |  |  |  | 35 | 102 | 70 |  | COc1ccc(Oc2ccc(NS(=O)(=O)Cc3ccccc3)c(NS(=O)(=O)Cc3ccccc3)c2)cc1 [Compound 12g, N-[4-(4-methoxy-phenoxy)-2-phenylmethanesulfonylamino-phenyl]-C-phenyl-methanesulfonamide]
24 |  |  |  | 9 | 98 | 36 |  | COc1ccc(Oc2ccc(NS(=O)(=O)c3cccc4ccccc34)c(NS(=O)(=O)c3cccc4ccccc34)c2)cc1 [Compound 12h, naphthalene-1-sulfonic acid [4-(4-methoxy-phenoxy)-2-(naphthalen-1-yl-sulfonylamino)-phenyl]-amide]
25 |  |  |  | 18 | > 198 | 30 |  | CCCCSc1ccc(NS(=O)(=O)c2ccc(C)cc2)c(NS(=O)(=O)c2ccc(C)cc2)c1 [Compound 12hh, N-[4-butylsulfanyl-2-(4-toluenesulfonylamino)-phenyl]-4-toluenesulfonamide]
26 |  |  |  | 8 | > 164 | 48 |  | COc1ccc(Oc2ccc(NS(=O)(=O)c3ccc4ccccc4c3)c(NS(=O)(=O)c3ccc4ccccc4c3)c2)cc1 [Compound 12i, naphthalene-2-sulfonic acid [4-(4-methoxy-phenoxy)-2-(naphthalen-2-yl-sulfonylamino)-phenyl]-amide]
27 |  |  |  | 50 | > 160 | 192 |  | COc1ccc(Oc2ccc(NS(=O)(=O)c3ccc(NC(C)=O)cc3)c(NS(=O)(=O)c3ccc(NC(C)=O)cc3)c2)cc1 [Compound 12j, N-[2-(4-acetamido-benzenesulfonylamino)-4-(4-methoxy-phenoxy)-phenyl]-4-acetamido-benzenesulfonamide]
28 |  |  |  | 29 | > 196 | 24 |  | COc1ccc(Oc2ccc(NS(=O)(=O)c3ccccc3)c(NS(=O)(=O)c3ccccc3)c2)cc1 [Compound 12n, N-[2-benzenesulfonylamino-4-(4-methoxy-phenoxy)-phenyl]-benzenesulfonamide]
29 |  |  |  | 39 | > 168 | 42 |  | COc1ccc(Oc2ccc(NS(=O)(=O)c3c(C)cc(C)cc3C)c(NS(=O)(=O)c3c(C)cc(C)cc3C)c2)cc1 [Compound 12q, N-[4-(4-methoxy-phenoxy)-2-(2,4,6-trimethylbenzenesulfonylamino)-phenyl]-2,4,6-trimethylbenzenesulfonamide]
